Measurements taken from patent US9034359B2, “Composition comprising biodegradable hydrating ceramics for controlled drug delivery” (Lidds AB, priority 2003, dated 2015).

Experiment: Dog study: plasma concentration of 2-hydroxyflutamide after implant in prostate tissue
Type: in vivo
Settings: 30, 60 or 120 mg in calcium sulphate-water implant in prostate tissue
Method: Composition according to example 1, composition 2, with three different 2-hydroxyflutamide (HT) concentrations, was tested in a dog study. The concentration profile of HT in prostate tissue in male dogs after local administration of the composition was investigated at different time points. Also a reference implant without HT was implanted in one dog.
Three male dogs are given 30, 60 or 120 mg of 2-hydroxy-flutamide by local implant delivery system in the prostate tissue; the total implantation time was 3 weeks.
The implant drug delivery system was inserted locally into the prostate tissue through sterile needles during rectal ultrasound guidance. The animals were under anesthesia during the insertion procedure.
Blood samples were taken every day for the first week and then once a week for the remaining weeks. Plasma samples were collected in tubes with EDTA and the plasma were transferred to microtubes of 2 ml, (sterile kryotubes from Sarstedt; No. 694.005).
The quantification of the parent drug, 2-hydroxyflutamide, in the plasma and tissue samples, was done by HPLC-MS analysis.

CC(C)(O)C(=O)Nc1ccc([N+](=O)[O-])c(C(F)(F)F)c1 [2-hydroxyflutamide]
extended plasma profile duration: 3 to 6 days
